Experimental data: patent US6706740B2, “Fungicidal heterocyclic aromatic amides and their compositions, methods of use and preparation” (Dow AgroSciences LLC, priority 1999, dated 2004)

tested on: Erysiphe graminis—ERYSGT; test: Powdery Mildew of Wheat, in vivo whole plant, 24 Hour Protectant; details: Erysiphe; 100 ppm spray, 24 hour protectant, wheat; control of fungal infection vs untreated plants; read-out: ERYSGT in vivo 1 Day Protectant

Compound	pest or weed control at 100 ppm [%]
COc1ccnc(C(=O)NC2CC(C)(C)CC(C)(C3CC3)C2)c1O (centres unmarked) [Compound 252]	< 25
CC(NC(=O)c1ncccc1O)c1ccc(Cl)cc1 (centres unmarked) [Compound 230]	< 25

same assay, conditions: Erysiphe; 100 ppm spray, wheat, 24 hour protectant; control of fungal infection vs untreated plants; read-out: ERYSGT in vivo 1 Day Protectant

Compound	pest or weed control at 100 ppm [%]
COc1ccnc(C(=O)Nc2cccc(Oc3ccc(C(F)(F)F)cc3)c2)c1O [Compound 423]	< 25
COc1ccnc(C(=O)Nc2ccccc2Oc2ccc(C)cc2)c1O [Compound 411]	< 25

tested on: Puccinia recondita—PUCCRT; test: Brown Rust of Wheat, in vivo whole plant, 24 Hour Protectant; details: Puccinia; 100 ppm spray, 24 hour protectant, wheat; control of fungal infection vs untreated plants; read-out: PUCCRT in vivo 1 Day Protectant

Compound	pest or weed control at 100 ppm [%]
COc1ccnc(C(=O)NC2CC(C)(C)CC(C)(C3CC3)C2)c1O (centres unmarked) [Compound 252]	25 to 74
CC(NC(=O)c1ncccc1O)c1ccc(Cl)cc1 (centres unmarked) [Compound 230]	< 25

same assay, conditions: Puccinia; 100 ppm spray, wheat, 24 hour protectant; control of fungal infection vs untreated plants; read-out: PUCCRT in vivo 1 Day Protectant

Compound	pest or weed control at 100 ppm [%]
COc1ccnc(C(=O)Nc2cccc(Oc3ccc(C(F)(F)F)cc3)c2)c1O [Compound 423]	25 to 74
COc1ccnc(C(=O)Nc2ccccc2Oc2ccc(C)cc2)c1O [Compound 411]	< 25

tested on: Ustilago maydis (USTIMA); test: microbe, parasite or virus in culture; assay type: cell-based; details: Mycosarcoma maydis, read-out: USTIMA in vitro Growth Inhibition

Compound	inhibition at 25 ppm [%]
COc1ccnc(C(=O)Nc2cccc(Oc3ccc(C(F)(F)F)cc3)c2)c1O [Compound 423]	< 80
COc1ccnc(C(=O)Nc2ccccc2Oc2ccc(C)cc2)c1O [Compound 411]	< 80
COc1ccnc(C(=O)NC2CC(C)(C)CC(C)(C3CC3)C2)c1O (centres unmarked) [Compound 252]	< 80
CC(NC(=O)c1ncccc1O)c1ccc(Cl)cc1 (centres unmarked) [Compound 230]	< 80

tested on: Stagonospora nodorum (Leptosphaeria nodorum—LEPTNO); test: In vitro fungal growth inhibition, Stagonospora nodorum (LEPTNO); assay type: cell-based; details: Leptosphaeria; 25 ppm in growth medium; read-out: LEPTNO in vitro Growth Inhibition

Compound	inhibition at 25 ppm [%]
COc1ccnc(C(=O)Nc2cccc(Oc3ccc(C(F)(F)F)cc3)c2)c1O [Compound 423]	< 80
COc1ccnc(C(=O)Nc2ccccc2Oc2ccc(C)cc2)c1O [Compound 411]	> 80
COc1ccnc(C(=O)NC2CC(C)(C)CC(C)(C3CC3)C2)c1O (centres unmarked) [Compound 252]	> 80
CC(NC(=O)c1ncccc1O)c1ccc(Cl)cc1 (centres unmarked) [Compound 230]	> 80

tested on: Phytophthora infestans—PHYTIN; test: whole plant or invertebrate; assay type: in vivo; details: Phytophthora, in Solanum lycopersicum, 24 h, read-out: PHYTIN in vivo 1 Day Protectant

Compound	pest or weed control at 100 ppm [%]
COc1ccnc(C(=O)Nc2cccc(Oc3ccc(C(F)(F)F)cc3)c2)c1O [Compound 423]	< 25
COc1ccnc(C(=O)Nc2ccccc2Oc2ccc(C)cc2)c1O [Compound 411]	< 25
COc1ccnc(C(=O)NC2CC(C)(C)CC(C)(C3CC3)C2)c1O (centres unmarked) [Compound 252]	25 to 74
CC(NC(=O)c1ncccc1O)c1ccc(Cl)cc1 (centres unmarked) [Compound 230]	< 25

tested on: Septoria tritici—SEPTTR; test: Leaf Blotch of Wheat, in vivo whole plant, 24 Hour Protectant; details: Zymoseptoria tritici, 24 h, 100 ppm spray, 24 hour protectant, wheat; control of fungal infection vs untreated plants; read-out: SEPTTR in vivo 1 Day Protectant

Compound	pest or weed control at 100 ppm [%]
COc1ccnc(C(=O)NC2CC(C)(C)CC(C)(C3CC3)C2)c1O (centres unmarked) [Compound 252]	25 to 74
CC(NC(=O)c1ncccc1O)c1ccc(Cl)cc1 (centres unmarked) [Compound 230]	25 to 74

same assay, conditions: Zymoseptoria tritici, 24 h, 100 ppm spray, wheat, 24 hour protectant; control of fungal infection vs untreated plants; read-out: SEPTTR in vivo 1 Day Protectant

Compound	pest or weed control at 100 ppm [%]
COc1ccnc(C(=O)Nc2cccc(Oc3ccc(C(F)(F)F)cc3)c2)c1O [Compound 423]	25 to 74
COc1ccnc(C(=O)Nc2ccccc2Oc2ccc(C)cc2)c1O [Compound 411]	< 25

tested on: Phytophthora infestans (PHYTIN); test: microbe, parasite or virus in culture; assay type: cell-based; details: Phytophthora infestans, read-out: PHYTIN in vitro Growth Inhibition

Compound	inhibition at 25 ppm [%]
COc1ccnc(C(=O)Nc2cccc(Oc3ccc(C(F)(F)F)cc3)c2)c1O [Compound 423]	< 80
COc1ccnc(C(=O)Nc2ccccc2Oc2ccc(C)cc2)c1O [Compound 411]	< 80
COc1ccnc(C(=O)NC2CC(C)(C)CC(C)(C3CC3)C2)c1O (centres unmarked) [Compound 252]	> 80
CC(NC(=O)c1ncccc1O)c1ccc(Cl)cc1 (centres unmarked) [Compound 230]	> 80

tested on: Mycosphaerella graminicola (Septoria tritici—SEPTTR); test: In vitro fungal growth inhibition, Mycosphaerella graminicola (SEPTTR); assay type: cell-based; details: Zymoseptoria tritici; 25 ppm in growth medium; read-out: SEPTTR in vitro Growth Inhibition

Compound	inhibition at 25 ppm [%]
COc1ccnc(C(=O)Nc2cccc(Oc3ccc(C(F)(F)F)cc3)c2)c1O [Compound 423]	< 80
COc1ccnc(C(=O)Nc2ccccc2Oc2ccc(C)cc2)c1O [Compound 411]	> 80
COc1ccnc(C(=O)NC2CC(C)(C)CC(C)(C3CC3)C2)c1O (centres unmarked) [Compound 252]	> 80
CC(NC(=O)c1ncccc1O)c1ccc(Cl)cc1 (centres unmarked) [Compound 230]	> 80

tested on: Magnaporthe grisea (Pyricularia oryzae—PYRIOR); test: microbe, parasite or virus in culture; assay type: cell-based; details: Pyricularia oryzae, read-out: PYRIOR in vitro Growth Inhibition

Compound	inhibition at 25 ppm [%]
COc1ccnc(C(=O)Nc2cccc(Oc3ccc(C(F)(F)F)cc3)c2)c1O [Compound 423]	> 80
COc1ccnc(C(=O)Nc2ccccc2Oc2ccc(C)cc2)c1O [Compound 411]	< 80
COc1ccnc(C(=O)NC2CC(C)(C)CC(C)(C3CC3)C2)c1O (centres unmarked) [Compound 252]	> 80
CC(NC(=O)c1ncccc1O)c1ccc(Cl)cc1 (centres unmarked) [Compound 230]	> 80

tested on: Rhizoctonia solani (RHIZSO); test: microbe, parasite or virus in culture; assay type: cell-based; details: Rhizoctonia solani, read-out: RHIZSO in vitro Growth Inhibition

Compound	inhibition at 25 ppm [%]
COc1ccnc(C(=O)Nc2cccc(Oc3ccc(C(F)(F)F)cc3)c2)c1O [Compound 423]	< 80
COc1ccnc(C(=O)Nc2ccccc2Oc2ccc(C)cc2)c1O [Compound 411]	< 80
COc1ccnc(C(=O)NC2CC(C)(C)CC(C)(C3CC3)C2)c1O (centres unmarked) [Compound 252]	> 80
CC(NC(=O)c1ncccc1O)c1ccc(Cl)cc1 (centres unmarked) [Compound 230]	< 80

tested on: Leptosphaeria nodorum—LEPTNO; test: Glume Blotch of Wheat, in vivo whole plant, 24 Hour Protectant; details: Leptosphaeria; 100 ppm spray, 24 hour protectant, wheat; control of fungal infection vs untreated plants; read-out: LEPTNO in vivo 1 Day Protectant

Compound	pest or weed control at 100 ppm [%]
COc1ccnc(C(=O)NC2CC(C)(C)CC(C)(C3CC3)C2)c1O (centres unmarked) [Compound 252]	25 to 74
CC(NC(=O)c1ncccc1O)c1ccc(Cl)cc1 (centres unmarked) [Compound 230]	25 to 74

same assay, conditions: Leptosphaeria; 100 ppm spray, wheat, 24 hour protectant; control of fungal infection vs untreated plants; read-out: LEPTNO in vivo 1 Day Protectant

Compound	pest or weed control at 100 ppm [%]
COc1ccnc(C(=O)Nc2cccc(Oc3ccc(C(F)(F)F)cc3)c2)c1O [Compound 423]	25 to 74
COc1ccnc(C(=O)Nc2ccccc2Oc2ccc(C)cc2)c1O [Compound 411]	< 25
